One molecule from PMC7925909, “The Multi-Level Mechanism of Action of a Pan-Ras Inhibitor Explains its Antiproliferative Activity on Cetuximab-Resistant Cancer Cells” (Frontiers in Molecular Biosciences, 2021) can be followed below.

pEC50: −log10 of the molar value.

In test [1] the target is T1, HRas^G13D (Homo sapiens, UniProt P01112, G13D).
T1 construct: N-terminal His-tagged, residues 1-166
Briefly: STD-NMR on HRas G13D-GDP; dose-dependent inhibition of intrinsic and GEF-mediated mant-nucleotide dissociation/exchange. Type of test: binding.

Test [2] has as its target T2, HRas (Homo sapiens, UniProt P01112).
T2 construct: N-terminal His-tagged, residues 1-166
Briefly: STD-NMR and native MS of the HRas-GDP-cmp4 ternary complex; the EC50 is from SPR inhibition of RasGRF1 binding to HRas-GDP; mant-nucleotide dissociation/exchange also inhibited.

One may read the pEC50 as −log10 of the EC50, conventionally taken in molar units.

T1 sequence (P01112 1-166 G13D): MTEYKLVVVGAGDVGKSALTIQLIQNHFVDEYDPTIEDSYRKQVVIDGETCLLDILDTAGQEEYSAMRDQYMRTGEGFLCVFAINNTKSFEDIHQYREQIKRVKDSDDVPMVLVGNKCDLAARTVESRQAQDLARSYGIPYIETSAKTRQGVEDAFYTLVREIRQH
T2 sequence (P01112 1-166): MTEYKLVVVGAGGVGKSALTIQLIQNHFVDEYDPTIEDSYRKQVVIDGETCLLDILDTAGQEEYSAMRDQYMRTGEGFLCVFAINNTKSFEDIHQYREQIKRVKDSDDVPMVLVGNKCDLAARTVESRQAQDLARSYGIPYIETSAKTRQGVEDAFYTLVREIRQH

Take `OC[C@H]1O[C@@H](O[C@H]2[C@H](O)[C@@H](O)[C@H](N(Cc3ccc(O)c(O)c3)OCc3ccccc3)O[C@@H]2CO)[C@H](O)[C@@H](O)[C@H]1O` [cmp4]: the “STD-NMR on HRas G13D-GDP; dose-dependent inhibition of intrinsic and GEF-mediate” value in test [1] is “STD analysis on HRas^G13D mutant protein saturated with cmp4 shows that cmp4 also interacts with the mutant protein”. Moreover, the pEC50 in test [2] is ~3.77.
